System: carrageenin-induced paw edema
Assay: Anti-inflammatory activity: inhibition of carrageenin-induced paw edema in rats
Assay type: in vivo, rat (male, S.D. strain)
Settings: Rattus norvegicus, po, read-out: Inhibition percent of edema; for inhibition in vivo at 50 mg/kg: 50 mg/kg p.o.; for inhibition in vivo at 100 mg/kg: 100 mg/kg p.o.; for inhibition in vivo at 25 mg/kg: 25 mg/kg p.o.
Procedure: (1) Anti-inflammatory activity: inhibition of carrageenin-induced paw edema in rats The compound was tested for the above activity according to the method of C.A. Winter et al. [Proc. Soc. […] One hour after the test compound was orally given to the animal, 0.1 ml of 1% carrageenin solution was subcutaneously injected into the right footpad. The paw volume was measured 3 hours thereafter, and the resulting increase in the volume was calculated based on the volume before the injection of carrageenin solution. The percent inhibition was determined in comparison with the increase in the control group.

[1] = 1 h before carrageenin, paw volume 3 h after, vs control

Row | SMILES | inhibition in vivo at 100 mg/kg [1] [%] | also measured
1 | CC(C)(C)c1cc(Nc2cnccn2)cc(C(C)(C)C)c1O [Compound 1, 2,6-di-tert-butyl-4-pyrazinylaminophenol] | – | inhibition in vivo at 50 mg/kg [1]: 37%
2 | CC(C)c1cc(Nc2cnccn2)cc(C(C)(C)C)c1O [Compound 4, 2-isopropyl-6-tert-butyl-4-pyrazinylaminophenol] | 39 | –
3 | CC(C)c1cc(Nc2cccnn2)cc(C(C)(C)C)c1O [Compound 10] | – | inhibition in vivo at 25 mg/kg [1]: 35%
4 | CC(C)(C)c1cc(Nc2cccnn2)cc(C(C)(C)C)c1O [Compound 11, 2,6-di-tert-butyl-4-[(3-pyridazinyl)amino]phenol] | 62 | –
5 | CC(C)(C)c1cc(Nc2ccnnc2)cc(C(C)(C)C)c1O [Compound 12, 2,6-di-tert-butyl-4-[(4-pyridazinyl)amino]phenol] | – | inhibition in vivo at 25 mg/kg [1]: 29%
6 | CC(C)(C)c1cc(Nc2ncccn2)cc(C(C)(C)C)c1O [Compound 13, 2,6-di-tert-butyl-4-[(2-pyrimidinyl)amino]phenol] | – | inhibition in vivo at 10 mg/kg (10 mg/kg p.o., 1 h before carrageenin, paw volume 3 h after, vs control): 41%
7 | CC(C)(C)c1cc(Nc2ccncn2)cc(C(C)(C)C)c1O [Compound 14, 2,6-di-tert-butyl-4-[(4-pyrimidinyl)amino]phenol] | – | inhibition in vivo at 50 mg/kg [1]: 30%
8 | CC(C)(C)c1cc(Nc2cncnc2)cc(C(C)(C)C)c1O [Compound 15] | 16 | –
9 | Cc1cnc(Nc2cc(C(C)(C)C)c(O)c(C(C)(C)C)c2)cn1 [Compound 16] | 10 | –
10 | Cc1ccc(Nc2cc(C(C)(C)C)c(O)c(C(C)(C)C)c2)nn1 [Compound 17, 2,6-di-tert-butyl-4-[(6-methyl-3-pyridazinyl)amino]phenol] | – | inhibition in vivo at 25 mg/kg [1]: 36%
11 | Cc1ccnc(Nc2cc(C(C)(C)C)c(O)c(C(C)(C)C)c2)n1 [Compound 18, 2,6-di-tert-butyl-4-[(4-methyl-2-pyrimidinyl)amino]phenol] | – | inhibition in vivo at 50 mg/kg [1]: 36%
12 | CC(C)(C)c1cc(Nc2cncnc2N)cc(C(C)(C)C)c1O [Compound 22, 2,6-di-tert-butyl-4-[(4-amino-5-pyrimidinyl)amino]phenol] | 32 | –
13 | COc1ccc(Nc2cc(C(C)(C)C)c(O)c(C(C)(C)C)c2)nn1 [Compound 24, 2,6-di-tert-butyl-4-[(6-methoxy-3-pyridazinyl)amino]phenol] | – | inhibition in vivo at 25 mg/kg [1]: 31%
14 | CC(C)(C)c1cc(Nc2cncc(Cl)n2)cc(C(C)(C)C)c1O [Compound 25] | 15 | –
15 | CC(C)(C)c1cc(Nc2ccc(Cl)nn2)cc(C(C)(C)C)c1O [Compound 26, 2,6-di-tert-butyl-4-[(6-chloro-3-pyridazinyl)amino]phenol] | 27 | –
16 | CC(C)(C)c1cc(Nc2cc(Cl)nnc2Cl)cc(C(C)(C)C)c1O [Compound 27, 2,6-di-tert-butyl-4-[(3,6-dichloro-4-pyridazinyl)amino]pheonl] | 33 | –

Row | SMILES | inhibition in vivo at 100 mg/kg [1] [%] | also measured
17 | CCOc1ccc(Nc2cc(C(C)(C)C)c(O)c(C(C)(C)C)c2)nn1 [Compound 28, 2,6-di-tert-butyl-4-[(6-ethoxy-3-pyridazinyl)amino]phenol] | 33 | –
18 | CC(C)(C)c1cc(Nc2ccc(CO)nn2)cc(C(C)(C)C)c1O [Compound 33, 2,6-di-tert-butyl-4-[(6-hydroxymethyl-3-pyridazinyl)amino]phenol] | 46 | –
19 | CC(C)(C)c1cc(Nc2cc[nH]n2)cc(C(C)(C)C)c1O [Compound 34, 2,6-di-tert-butyl-4-(3-pyrazolylamino)phenol] | 65 | –
20 | Cn1nccc1Nc1cc(C(C)(C)C)c(O)c(C(C)(C)C)c1 [Compound 39, 2,6-di-tert-butyl-4-[(2-methyl-3-pyrazolyl)amino]phenol] | 46 | –
21 | CC(C)(C)c1cc(Nc2ncc[nH]2)cc(C(C)(C)C)c1O [Compound 48] | – | inhibition in vivo at 25 mg/kg [1]: 63%
22 | CC(C)(C)c1cc(Nc2ncco2)cc(C(C)(C)C)c1O [Compound 49, 2,6-di-tert-butyl-4-[(2-oxazolyl)amino]phenol] | 41 | –
23 | Cc1cc(Nc2cc(C(C)(C)C)c(O)c(C(C)(C)C)c2)no1 [Compound 50] | – | inhibition in vivo at 50 mg/kg [1]: 12%
24 | CC(C)(C)c1cc(Nc2c[nH]nn2)cc(C(C)(C)C)c1O [Compound 51, 2,6-di-tert-butyl-4-[(1,2,3-triazol-4-yl)amino]phenol] | 42 | –
25 | CC(C)(C)c1cc(Nc2nnc[nH]2)cc(C(C)(C)C)c1O [Compound 54] | 20 | –
26 | CC(C)(C)c1cc(Nn2cnnc2)cc(C(C)(C)C)c1O [Compound 55, 2,6-di-tert-butyl-4-[(1,2,4-triazol-4-yl)amino]phenol] | 23 | –
27 | CC(C)(C)c1cc(Nc2nc(-c3ccccc3)ns2)cc(C(C)(C)C)c1O [Compound 56, 2,6-di-tert-butyl-4-[(3-phenyl-1,2,4-thiadiazol-5-yl)amino]phenol] | 13 | –
28 | Cc1nnc(Nc2cc(C(C)(C)C)c(O)c(C(C)(C)C)c2)s1 [Compound 58, 2,6-di-tert-butyl-4-[(5-methyl-1,3,4-thiadiazol-2-yl)amino]pheonl] | 30 | –
29 | CC(C)(C)c1cc(Nc2nccnn2)cc(C(C)(C)C)c1O [Compound 59, 2,6-di-tert-butyl-4-[(1,2,4-triazin-3-yl)amino]phenol] | – | inhibition in vivo at 50 mg/kg [1]: 37%
30 | Cc1sccc1Nc1cc(C(C)(C)C)c(O)c(C(C)(C)C)c1 [Compound 61, 2,6-di-tert-butyl-4-[(2-methyl-3-thienyl)amino]phenol] | – | inhibition in vivo at 50 mg/kg [1]: 25%
31 | CC(C)(C)c1cc(Nc2cncc[n+]2[O-])cc(C(C)(C)C)c1O [Compound 64, 2-N-(3,5-di-tert-butyl-4-hydroxyphenyl)aminopyrazine-1-oxide] | – | inhibition in vivo at 25 mg/kg [1]: 31%
32 | COc1ccc2c(c1)c(CC(=O)O)c(C)n2C(=O)c1ccc(Cl)cc1 [Indomethacin, reference compound] | – | inhibition in vivo at 5 mg/kg (3 h): 36%

Source: patent US4868183A, “N-pyrazinyl substituted P-aminophenols” (Otsuka Pharmaceutical Factory, Inc., priority 1986, dated 1989)
